In patent publication US20170240592A1, “GADD45BETA/MKK7 INHIBITOR FOR THE TREATMENT OF A RESISTANT HAEMATOLOGICAL MALIGNANCY” (IMPERIAL INNOVATIONS LIMITED, priority 2014, published 2017):

Key:
[1] = test system: subcutaneous U266 myeloma xenografts; assay: plasmacytoma model, subcutaneous U266 myeloma xenografts; assay type: in vivo, NOD/SCID mice; settings: for effect on established subcutaneous myeloma xenografts (tumour volume): to day 28
Procedure: (§1) Values denote means±SEM (n=16). ***, p<0.001.
(§2) Mice were housed in the animal facilities at Hammersmith. All experiments were conducted under PPL 70/6874, after approval by the Imperial College Ethical Review Process and the Home Office. For the plasmacytoma model, NOD/SCID mice (NOD.CB17-Prkdc^scid/IcrCrl; Charles River) were injected subcutaneously with 1.0×10^7 U266 or KMS-11 multiple myeloma cells, and then randomized into treatment groups and treated by infusion, as shown. Tumour volumes were measured as described in Mauro et al., 2011. For the orthotopic multiple myeloma model, mice of the same strain were sub-lethally irradiated and then injected intravenously with 1.0×10^7 KMS-12-BM multiple myeloma cells, as described in Rabin et al., 2007). Mice were then randomized into treatment groups and treated by infusion for 8 weeks, as shown. Animals were monitored daily and euthanized on day 161 of treatment start or when they reached any of the end-points in the PPL. Additional details are provided in the Supplemental Experimental Procedures.
(§3) Mice were housed in the animal facilities at the Hammersmith Campus, Imperial College London, and experiments were conducted under the Home Office Authority (PPL 70/6874). The PPL was reviewed by the Imperial College Ethical Review Process (ERP) and the Home Office. For experiments in the subcutaneous xenograft models (FIGS. 16-17), 6 to 8-week old male NOD/SCID mice (NOD.CB17-Prkdc^scid/IcrCrl; Charles River) were injected intraperitoneally with anti-CD122 monoclonal antibody (TM-β1 clone; 200 μg/mouse) (Tanaka et al., 1991) and, 24 hr later, subcutaneously in the left flank with 1.0×10^7 U266 or KMS-11 human multiple myeloma cells resuspended in 200 μL of sterile PBS and Matrigel (1:1) (BD Biosciences), using a 1-mL Luer-Lok™ Tip syringe (BD Biosciences) with a 25-gauge needle (Bhutani et al., 2007). U266 and KMS-11 cells were harvested from exponentially growing cultures, washed once with serum-free medium, and resuspended in PBS immediately before injection (Bhutani et al., 2007). The anti-CD122 antibody was affinity purified using HiTrap Protein G HP columns (GE Healthcare), according to the manufacturer's instructions. One week after injection of the cells, when tumour volumes had reached approximately 100 mm^3 (U266 cells) or tumours had yet to be palpable (KMS-11 cells), mice were randomized into treatment groups (n=16 or n=4 per group, respectively; day 0) (Bhutani et al., 2007) and, then, treated by continual infusion of DTP3 at a dose of 14.5 mg/kg/d, yielding a plasma concentration of 0.70±0.09 μM (SEM; n=16), or PBS. Treatments were administered using Alzet osmotic pumps (model 1004; 28-day delivery at the rate of […]; Charles River), implanted surgically subcutaneously into the right flank of each mouse, according to the manufacturer's instructions (Gullapalli et al., 2012). For systemic administration, DTP3 was dissolved at the concentration of 147 mg/mL in PBS, and mice were euthanized on day 28 of the start of treatment with CO2. Tumour diameters were measured at the indicated times using a vernier calliper, and volumes were estimated from calliper measurements using the following equation: volume=A×B^2/2 (where A is the larger diameter, and B is the smaller diameter of the tumour) (Mauro et al., 2011). Results were reproduced at least twice. The plasma concentration of DTP3 was measured at the steady state by LC-MS/MS at Cyprotex, as described above.

[2] = as above; assay type: in vivo, NOD/SCID mice; settings: male, NOD/SCID (NOD.CB17-Prkdc^scid/IcrCrl), mouse, plasma, sc, 14.5 mg/kg/day; continual infusion via osmotic pumps, 14.5 mg/kg/d; SEM, n=16; read-out: plasma concentration at the steady state
Procedure: as §1, §2, §3

[3] = test system: multiple myeloma cell lines; assay: [3H]thymidine incorporation assay, survival of multiple myeloma cell lines; assay type: cell-based, human; settings: 6-day treatment; all lines tested apart from RPMI-8226 and KMM-1
Procedure: Values express the percentage of live cells present in the treated cultures relative to the live cells present in the respective untreated cultures and denote means±SD ([WM]; n=3). UT, untreated. […] Values express the percentage of inhibition of Gadd45β binding to MKK7 relative to the binding measured in the absence of peptide. […] Co-immunoprecipitations (IP) were performed using an anti-FLAG antibody (a-FLAG); western blots (WB) were developed using an anti-HA or an anti-MKK7 antibody, as shown.
[^3H]Thymidine incorporation and trypan blue exclusion assays were performed using standard methods (Mauro et al., 2011). […] Apoptosis analyses were performed using PI staining as described in Mauro et al., 2011. Additional details are provided in the Supplemental Experimental Procedures.

[4] = 14.5 mg/kg/day continual infusion
[5] = 14.5 mg/kg/day, results not shown

## CC(=O)N[C@H](Cc1ccc(O)cc1)C(=O)N[C@H](CCCNC(=N)N)C(=O)N[C@H](Cc1ccccc1)C(N)=O [DTP3, Acetyl-Tyr-Arg-Phe-NH2]
[1]; [4]
  side effects: absence of any apparent side effects
  effect on established subcutaneous myeloma xenografts (tumour volume): virtually eradicated
[1]; 14.5 mg/kg/day continual infusion, listed as DTP-3
  effect on established subcutaneous myeloma xenografts (tumour volume): dramatic shrinkage of the tumors
[1]; [5]
  appearance of caspase-3 and PARP-1 proteolysis products in tumour: 3 days
  appearance of phosphorylated JNK in tumour after onset of treatment: 24 h
[2]
  level at time molar: ~1000 nM
[3]
  cytotoxic activity in multiple myeloma cell lines: potent and selective capacity to kill multiple myeloma cells via apoptosis
